The values below come from PMC5076529, “Binding Sites for Acylated Trehalose Analogs of Glycolipid Ligands on an Extended Carbohydrate Recognition Domain of the Macrophage Receptor Mincle” (The Journal of Biological Chemistry, 2016).

For orientation: Ki means the dissociation constant of the complex between target and ligand, obtained from inhibition or displacement.

Molecules are shown by their SMILES.

Assay [1] concerns the target T1, mincle minimal CRD (bovine) (Bos taurus, UniProt E1BHM0, I174T).
T1 construct: gene CLEC4E; minimal C-type carbohydrate recognition domain, N-terminally truncated, lacks disulfide 4; E. coli, renatured from inclusion bodies
T1 sequence (E1BHM0 79-211 I174T): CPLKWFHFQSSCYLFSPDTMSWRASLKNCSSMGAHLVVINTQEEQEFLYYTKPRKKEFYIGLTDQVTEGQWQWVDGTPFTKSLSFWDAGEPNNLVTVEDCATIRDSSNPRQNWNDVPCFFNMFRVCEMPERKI
Put plainly: competition with […]-mannose-BSA on immobilized CRD. It is filed as binding.

The target of assay [2] is T1, mincle minimal CRD (bovine). Kind of assay: X-ray crystallography, […] Å. The settings on record: pH 5.6; primary sugar-binding site, conserved Ca2+; acyl chain only partly visible.
In assay [3] the target is T2, mincle extended CRD (bovine) (Bos taurus, UniProt E1BHM0, I174T).
T2 construct: gene CLEC4E; extended CRD from Glu-64 to C terminus with one extra N-terminal Ala, includes disulfide 4; E. coli BL21(DE3) inclusion bodies, renatured, trehalose-Sepharose
T2 sequence (E1BHM0 64-211 I174T): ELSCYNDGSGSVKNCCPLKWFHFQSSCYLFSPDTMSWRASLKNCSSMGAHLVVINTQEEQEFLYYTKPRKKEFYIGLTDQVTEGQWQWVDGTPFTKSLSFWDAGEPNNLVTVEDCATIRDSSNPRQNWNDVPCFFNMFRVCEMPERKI
Kind of assay: X-ray crystallography, […] Å. The conditions noted are these: pH 5.5 reservoir; primary sugar-binding site, conserved Ca2+.

The target of assay [4] is T2, mincle extended CRD (bovine). Put plainly: X-ray crystallography, […] Å. The settings on record: pH 5.6 reservoir; primary sugar-binding site, conserved Ca2+; second substituent not visible.

As to `CCCCC(=O)OC[C@H]1O[C@H](O[C@H]2O[C@H](COC(=O)CCCC)[C@@H](O)[C@H](O)[C@H]2O)[C@H](O)[C@@H](O)[C@@H]1O` [Divalerate], in assay [1], affinity was put at a Ki of 59 ± 2 µM.

Regarding `CCCCCCCCCCCC(=O)OC[C@H]1O[C@H](O[C@H]2O[C@H](CO)[C@@H](O)[C@H](O)[C@H]2O)[C@H](O)[C@@H](O)[C@@H]1O` [Monododecanoate], the inhibitory constant (Ki) in assay [1] is 3.1 ± 0.5 µM.

For `CCCC(=O)OC[C@H]1O[C@H](O[C@H]2O[C@H](CO)[C@@H](O)[C@H](O)[C@H]2O)[C@H](O)[C@@H](O)[C@@H]1O` [trehalose monobutyrate], in assay [2], the “X-ray crystallography, 2.10 Å” value is “Co-crystals of trehalose monobutyrate and the CRD of mincle were examined”.

With `CCCCCC(=O)OC[C@H]1O[C@H](O[C@H]2O[C@H](COC(=O)CCCCC)[C@@H](O)[C@H](O)[C@H]2O)[C@H](O)[C@@H](O)[C@@H]1O` [Dihexanoate], the inhibition constant Ki in assay [1] came out at 8.2 ± 0.3 µM.

`CCCCCCC(=O)OC[C@H]1O[C@H](O[C@H]2O[C@H](CO)[C@@H](O)[C@H](O)[C@H]2O)[C@H](O)[C@@H](O)[C@@H]1O` [Monoheptanoate] returned a Ki in assay [1] of 137 ± 18 µM.

`CCCCCCCCCC(=O)OC[C@H]1O[C@H](O[C@H]2O[C@H](CO)[C@@H](O)[C@H](O)[C@H]2O)[C@H](O)[C@@H](O)[C@@H]1O` [Monodecanoate] returned a Ki in assay [1] of 5.1 ± 0.6 µM.

For `Cc1cc(O)cc(O)c1C(=O)OC[C@H]1O[C@H](O[C@H]2O[C@H](COC(=O)c3c(C)cc(O)cc3O)[C@@H](O)[C@H](O)[C@H]2O)[C@H](O)[C@@H](O)[C@@H]1O` [brartemicin], the “X-ray crystallography, 2.20 Å” value in assay [3] is “structures of the extended CRD bound to either natural brartemicin or a synthetic analog”.

`CC(C)C(=O)OC[C@H]1O[C@H](O[C@H]2O[C@H](COC(=O)C(C)C)[C@@H](O)[C@H](O)[C@H]2O)[C@H](O)[C@@H](O)[C@@H]1O` [Diisobutyrate] showed a Ki in assay [1] of 370 ± 40 µM.

For the molecule `COc1cccc(C(=O)OC[C@H]2O[C@H](O[C@H]3O[C@H](COC(=O)c4cccc(OC)c4OC)[C@@H](O)[C@H](O)[C@H]3O)[C@H](O)[C@@H](O)[C@@H]2O)c1OC` [brartemicin analog], in assay [4], the “X-ray crystallography, 1.80 Å” value was “The structure of mincle bound to a synthetic analog of brartemicin was also examined”.
